This is an account of results in patent US20110318270A1, “DRUG IDENTIFICATION PROTOCOL FOR TYPE 2 DIABETES BASED ON GENE EXPRESSION SIGNATURES” (VERVA PHARMACEUTICALS LTD, priority 2009, published 2011).

In data set [1] the test system is Diet-induced obese (DIO) mice. The experiment in a line: Insulin sensitising effects of CAIs in diet-induced obese mice. The format is in vivo. To be noted: for reduction in the incremental area under the glucose curve (AUC) compared with vehicle-treated animals / glucose disposal: 50 mg/kg/day for 14 days, intraperitoneal glucose tolerance test. Here is the method:
Diet-induced obese (DIO) mice were treated with each CAI at 50 mg/kg/day for 14 days.

For data set [2], the system named is Diet-induced obese (DIO) mice. Described as above. To be noted: for effect on glucose tolerance: 20-100 mg/kg/day for 14 days. The data set is classed as in vivo.
Data set [3] has as its system TNFα-treated 3T3-L1 adipocytes. The data set can be described thus: TNFα-based GES small molecule library screen (MassARRAY, Zrcc score). The format is cell-based. Further details: key: Zrcc: Z-score normalized for sample variation and gene contribution. To be noted: 10 μM compound in final 24 h of 72 h TNFα (n=2); TTA n=29, TNF n=57. Here is the method: In order to identify new insulin sensitizing agents, a small molecule library consisting of 1120 high-purity, off-patent chemical compounds was screened using the GES. First, 3T3 […] adipocytes were cultured in fourteen 96-well plates and incubated with 3 ng/ml TNFα for 72 h prior to the addition of 10 μM of each compound in the last 24 h of TNFα treatment. Four vehicle control, four TNFα and two TNFα plus ASA- and TGZ-treated wells serving as controls were included per 96-well plate. The aim of the screen was to identify compounds that caused the expression of the 7 gene GES to most closely resemble the expression levels observed in the insulin re-sensitized cells as this is likely to indicate that these cells have restored insulin sensitivity. Following RNA extraction and cDNA synthesis, gene expression analysis of the 7 gene GES was performed using the MassARRAY (Sequenom, San Diego, Calif.) [Cullinan and Cantor Pharmacogenomics 9:1211-1215, 2008]. Data are represented as a Z-score residual coefficient correlation (Zrcc); a Z-score that is normalised for sample to sample variation and for the relative contribution that each gene makes to the predictive power of the GES. Compounds were ranked based on their Zrcc score highest to lowest, and as an initial proof of concept validation test, the top ranked 30 compounds and 23 randomly chosen, mid-ranked compounds were subjected to 2-DOG uptake assays to determine their potential insulin sensitising effects. 3T3 […] adipocytes were incubated with 25 μM of each compound prior to performing 2-DOG uptake assays in the presence or absence of submaximal amounts of insulin (0.5 nM for 15 min).
The GES-ranked compounds were next broadly grouped into classes based on known mechanism of action or common structural features and re-represented as the mean Zrcc. Only compound classes with 10 or more members were considered further. As a result, the class of treatments that scored the highest, thus representing the most insulin sensitive cells, were the vehicle-treated cells with an average Zrcc score of 1.76±0.37; (p<0.0001 to TNFα treatment and p<0.002 to TNFαplus ASA and TGZ co-treatments).
In a CD63-only screen, TTA results with a negative score and TNF with a positive (p=0.02). Serving as internal controls in the screen, 3T3-L1 adipocytes were either treated with vehicle (0.2% w/v DMSO) for 72 h (n=55), 3 ng/ml TNFα for 72 h (TNF (n=57) or 3 ng/ml TNFα for 72 h plus 10 μM TGZ and 5 mM ASA in the final 24 h of the TNFα incubation (TTA) (n=29). The gene expression analysis of the GES was performed using the Mass ARRAY system (Cullinan and Cantor, 2008 supra). Data are calculated as a Z-score of the residual component following adjustment for total expression levels and incorporating the correlation coefficients derived from the Bayesian prediction model (Zrcc). The resulting metric is a Z-score that was normalized for sample to sample variation and for the relative contribution that each gene makes to the predictive power of the GES. Data are represented as mea Zrcc values±SEM (with p values compared with TNF-treated sample). The statistical analyses were performed using Student's t-Test assuming 2-tailed distribution and 2-sample equal variance.
In this assay, 3T3-L1 adipocytes were incubated with TNFα for 72 h followed by the addition of 10 μM of each compound in the final 24 h of the TNFα treatment (n=2). Compounds include VVP808, published insulin sensitizers furazolidone (FUR) (monoamine oxidase inhibitor), mesalamine (MES) and fosfosal (FOS) (NSAIDs), and estradiol-17-beta (EST), and known insulin resistance-inducing compounds such as ajmaline (AJM) (glucose uptake inhibitor) and corticosterone (COR) (glucocorticoid). Serving as internal controls in the screen, 3T3-L1 adipocytes were either treated with vehicle (0.2% DMSO) for 72 h (n=55), 3 ng/ml TNFα for 72 h) TNF) (n=57) or 3 ng/ml TNFα for 72 h plus 10 μM TGZ and […] ASA in the final 24 h of the TNFα incubation (TTA) (n=29). […]

A further data set has as its system db/db mice. To be noted: for change in blood glucose levels compared with vehicle-treated animals: 300 mg/kg metformin or 20 mg/kg MTZ for 8 d. The protocol:
Mice treated with MTZ (50 mg/kg/d) for 14 d were placed into metabolic cages for 24 h.

The subject of another data set is 3T3-L1 adipocytes. The experiment in a line: Reversal of TNFα-induced insulin resistance, 2-deoxyglucose (2-DOG) uptake. The format is cell-based. Here is the method:
Initially, a model of TNFα-induced insulin resistance in 3T3-L1 adipocytes was established as described previously (Sartipy and Loskutoff J Biol Chem 278:52298-52306, 2003). Following exposure of 3T3-L1 adipocytes to 3 ng/ml TNFα for 72 h, insulin resistance was determined by the ability of the cells to take up 2-deoxyglucose (2-DOG) in response to insulin. TNFα caused a 37% decrease in 2-DOG uptake compared with insulin-stimulated vehicle-treated cells (p<0.0001) (Table 1).
3T3-L1 adipocytes were either treated with vehicle—(Veh), 3 ng/ml TNFα-(TNF) or 3 ng/ml TNFα plus 10 μM TGZ and 5 mM ASA (TTA) as detailed above. Cells were then treated with insulin (0 or 10 nM) for 30 min followed by measurement of 2-deoxyglucose (2-DOG) uptake over the final 10 min of insulin stimulation. Data are presented as % change in 2-DOG uptake compared with vehicle-treated, insulin-stimulated cells and represent mean values±SEM of >3 independent experiments and each data point was assayed in triplicate. […] The amount of 2-DOG transported in vehicle-treated adipocytes was 20.5±3.4 pmol/min/well. Statistical analyses were performed using Student's t-Test assuming 2-tailed distribution and 2-sample equal variance.

Regarding `Nc1ccccc1S(N)(=O)=O` [2ABS, 2-aminobenzene sulphonamide], the “reduction in the incremental area under the glucose curve (AUC) compared with vehicle-treated animals / glucose disposal” value in data set [1] is recorded as “did not affect glucose disposal”. Moreover, the “effect on glucose tolerance” value in data set [2] is given as “no significant effect”.
For `CC[C@H]1[C@@H]2C[C@H]3[C@@H]4N(C)c5ccccc5[C@]45C[C@@H]([C@H]2[C@H]5O)N3[C@@H]1O` [AJM, ajmaline], in data set [3], the “Mean Zrcc_GES ± SEM, CLU single gene” value is −0.2; the “Mean Zrcc_GES ± SEM, CS single gene” value is on record as −0.5; the “Mean Zrcc_GES ± SEM, STEAP4 single gene” value came out at 0.6.
The matching figures for `C[C@]12C[C@H](O)[C@H]3[C@@H](CCC4=CC(=O)CC[C@@]43C)[C@@H]1CC[C@@H]2C(=O)CO` [COR, corticosterone]: 0.5, −0.5 and −0.2.
On to `NS(=O)(=O)c1cc(C2(O)NC(=O)c3ccccc32)ccc1Cl` (centres unmarked) [CTD, chlorthalidone], for which the “reduction in the incremental area under the glucose curve (AUC) compared with vehicle-treated animals / glucose disposal” value in data set [1] is on record as “did not affect glucose disposal”. In addition, in data set [2], the “effect on glucose tolerance” value is on record as “no significant effect”.
For `NS(=O)(=O)c1cc(Cl)c(Cl)c(S(N)(=O)=O)c1` [DCP, dichlorphenamide], in that order: “did not affect glucose disposal” and “no significant effect”.
Consider `O=C(O)c1ccccc1OP(=O)(O)O` [FOS, fosfosal], for which, in data set [3], the “Mean Zrcc_GES ± SEM, CLU single gene” value was 0.6; the “Mean Zrcc_GES ± SEM, CS single gene” value is given as −0.05; the “Mean Zrcc_GES ± SEM, STEAP4 single gene” value is 0.3.
For `O=C1OCCN1/N=C/c1ccc([N+](=O)[O-])o1` [FUR, furazolidone], in that order: 0.4, −0.2 and 0.7.
Consider `Nc1ccc(O)c(C(=O)O)c1` [MES, mesalamine], for which, in data set [3], the “Mean Zrcc_GES ± SEM, CLU single gene” value was −0.9; the “Mean Zrcc_GES ± SEM, CS single gene” value is 3.1; the “Mean Zrcc_GES ± SEM, STEAP4 single gene” value is listed as −0.4.
As to `CNS(=O)(=O)c1nn(C)c(=NC(C)=O)s1` [MMTZ, N-methyl-methazolamide], the “reduction in the incremental area under the glucose curve (AUC) compared with vehicle-treated animals / glucose disposal” value in data set [1] is listed as “not observed”.
Turning to `CC(=O)/N=c1/sc(S(N)(=O)=O)nn1C` [MTZ, methazolamide], in data set [1], the “body weight, food and water intake or epididymal fat mass compared with vehicle-treated mice” value is “without significant changes”; the “reduction in the incremental area under the glucose curve (AUC) compared with vehicle-treated animals / glucose disposal” value was 27%. The “24 h urine output and creatine excretion” value in data set [1] (vs vehicle-treated) is recorded as “not significantly altered”. In the data set on db/db mice (db/db mice), the “time of administration after which the fasting glucose effect peaked” value was found to be 7 days, the “time of administration after which the fasting glucose effect was seen” value came to 3 days and the “change in blood glucose levels compared with vehicle-treated animals” value is “significantly lower change”. Further, in the data set with db/db mice (db/db mice, 50 mg/kg for 28 days, vs vehicle), the “lower HbA1c levels” value was “up to 23%”. Also, the “reduction of glucose urine concentration compared with vehicle-treated mice” value with db/db mice (db/db mice, 50 mg/kg/d for 14 d, metabolic cages 24 h) came to 18%. Besides, the fasting glucose levels result with db/db mice (db/db mice, 20 or 50 mg/kg/d for 14 days) was “dose-dependent decrease”. For the same molecule, in the data set with db/db mice (mouse, in vivo, 20 mg/kg), the “body weight, food or water intake” value is on record as “No change”. Moreover, in the data set on db/db mice (mouse, in vivo, 50 mg/kg), the “decrease in food intake” value is 27% and the food intake stood at 4.8 ± 0.5 g/day. Moreover, the “change in fasting blood glucose after the treatment period” value in the data set with db/db mice (pair-fed db/db mice, 8 days, n=6/group) is -6.2 ± 1.5 mM. For the same molecule, the plasma insulin levels entry in data set [2] (14 days, dose range) is “dose-dependent decrease”. In addition, in data set [2] (concentrations above 20 mg/kg, 14 days), the “circulating glucose levels compared with vehicle-treated mice” value is given as “significant reduction”.
With `CC(=O)/N=c1/sc(S(N)(=O)=O)nn1C` [compound 808], in data set [3], the “Mean Zrcc_GES ± SEM, CLU single gene” value is −0.4; the “Mean Zrcc_GES ± SEM, CS single gene” value worked out at 0.2; the “Mean Zrcc_GES ± SEM, STEAP4 single gene” value was determined as 0.5.
As for `NS(=O)(=O)c1cc(C(=O)O)c(NCc2ccco2)cc1Cl` [furosemide], in data set [2], the “effect on glucose tolerance” value is reported as “no significant effect”.
On to `CN(C)C(=N)N=C(N)N` [metformin], for which the “change in blood glucose levels compared with vehicle-treated animals” value in the data set with db/db mice (db/db mice) is on record as “significantly lower change”.
As for “Acute Insulin: insulin, 10 nM for 30 min”, in the data set on 3T3-L1 adipocytes (insulin 10 nM 30 min, TNFα 3 ng/ml 72 h, 10 μM TGZ & 5 mM ASA final 24 h, mean ± SEM), the “2-DOG Uptake (% of insulin-stimulated alone)” value is on record as 100.0 ± 9.7%. For the same molecule, the “fold increase in 2-DOG uptake above basal level” value with 3T3-L1 adipocytes (vehicle-treated, insulin-stimulated adipocytes (10 nM, 30 min)) amounted to 6.6±0.6 fold.
For estradiol-17-beta, in data set [3], the “Mean Zrcc_GES ± SEM, CLU single gene” value came to 0.5; the “Mean Zrcc_GES ± SEM, CS single gene” value came to 0.04; the “Mean Zrcc_GES ± SEM, STEAP4 single gene” value is 0.3.
